Results published in BindingDB's records for doi:10.7270/Q22J699S (Nmmlsc, 2010).
pEC50: −log10 of the molar value.

Molecular target: Guanine nucleotide-binding protein G(o) subunit alpha (Homo sapiens, UniProt P09471)
Assay: RGS8-Galphao interaction regulators, SAR follow-up, biochemical, multiplexed bead assay, additional SAR round (AID 2827)

Sequence of Guanine nucleotide-binding protein G(o) subunit alpha (P09471 whole entry): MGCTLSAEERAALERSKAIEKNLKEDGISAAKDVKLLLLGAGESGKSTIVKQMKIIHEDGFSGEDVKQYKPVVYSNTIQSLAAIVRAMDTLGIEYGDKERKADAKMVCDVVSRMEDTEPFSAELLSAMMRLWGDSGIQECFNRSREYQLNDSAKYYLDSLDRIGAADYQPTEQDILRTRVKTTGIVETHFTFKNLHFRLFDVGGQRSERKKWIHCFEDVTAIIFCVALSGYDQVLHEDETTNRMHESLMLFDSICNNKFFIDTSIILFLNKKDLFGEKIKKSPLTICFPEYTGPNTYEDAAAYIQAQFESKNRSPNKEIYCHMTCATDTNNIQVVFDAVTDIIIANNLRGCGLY

| SMILES | pEC50 |
| --- | --- |
| O=C(NCCCn1ccnc1)c1sc2cc([N+](=O)[O-])ccc2c1Cl [3-chloro-N-[3-(1-imidazolyl)propyl]-6-nitro-1-benzothiophene-2-carboxamide] | < 4.52 |
| O=C(NCCCN1CCOCC1)c1sc2cc([N+](=O)[O-])ccc2c1Cl [3-chloranyl-N-(3-morpholin-4-ylpropyl)-6-nitro-1-benzothiophene-2-carboxamide] | < 4.52 |
| Cc1ccc2c(Cl)c(C(=O)NCCCN3CCOCC3)sc2c1 [KUC103874N] | < 4.52 |
| NC(=O)c1sc2cc([N+](=O)[O-])ccc2c1Cl [KSC-1-100] | < 4.52 |
| O=C(c1sc2cc([N+](=O)[O-])ccc2c1Cl)N1CCNCC1 | < 4.52 |
